Experimental findings from US10414811B2, “Protease-resistant lipidated GLP-1 analogs” (MEDIMMUNE LIMITED, priority 2015, dated 2019) are described below.

SMILES strings stand for the structures. Read-outs that look alike come from different tables or passages of the source. Numbered stars: 1 amine (or outer) side, 2 acyl side, 3 side chain; on linkers, the order of the positions; unused ones are H or OH. Square brackets hold non-standard residues; d marks the D form. Side chains are listed from the residue outwards. Peptide text beside a SMILES is read from it. * marks the point of attachment. γGlu = O=C(O)[C@H](CCC(=O)[*:2])N[*:1]; αMeF = C[C@](N)(Cc1ccccc1)C(=O)O; αMeK = C[C@](N)(CCCCN)C(=O)O; Lauroyl = CCCCCCCCCCCC(=O)*; αMeS = C[C@](N)(CO)C(=O)O; AEEA = NCCOCCOCC(=O)O; Aib = CC(C)(N)C(=O)O Bounds are passed on as bounds.

In assay [1] the target is T1, human glucose-dependent insulinotropic peptide receptor (GIPR) (Homo sapiens, UniProt P48546).
T1 construct: expressed in transfected cells
T1 sequence (P48546 22-466): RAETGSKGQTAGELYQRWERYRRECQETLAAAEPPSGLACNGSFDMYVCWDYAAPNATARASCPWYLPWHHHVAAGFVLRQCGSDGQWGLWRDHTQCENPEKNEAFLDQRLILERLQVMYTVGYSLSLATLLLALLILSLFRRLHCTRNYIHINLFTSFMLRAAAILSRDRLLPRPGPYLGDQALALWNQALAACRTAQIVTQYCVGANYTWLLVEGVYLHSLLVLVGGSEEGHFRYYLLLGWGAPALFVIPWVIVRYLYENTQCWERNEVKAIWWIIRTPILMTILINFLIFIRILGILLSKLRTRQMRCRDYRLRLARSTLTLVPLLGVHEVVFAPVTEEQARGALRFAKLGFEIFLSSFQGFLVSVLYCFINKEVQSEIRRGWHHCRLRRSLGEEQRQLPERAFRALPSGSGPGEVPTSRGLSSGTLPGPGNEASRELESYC
The assay is described as follows: cAMP assay, human GIPR cells. It counts as cell-based. The method, then: (§1) Sample dilutions are made in duplicate.
(§2) A frozen cryo-vial of cells expressing the receptor of interest is thawed rapidly in a water-bath, transferred to pre-warmed assay buffer and spun at 240×g for 5 minutes. Cells are re-suspended in assay buffer at a batch-dependent optimized concentration (e.g. hGCGR cells at 2×10^5 cells/ml, hGLP-1R and hGIPR cells at 1×10^5 cells/ml).
(§3) To this, 5 μL cell suspension is added and the plates incubated at room temperature for 30 minutes.
(§4) cAMP levels are measured using a commercially available cAMP dynamic 2 HTRF kit (Cisbio, Cat #62AM4PEJ), following the two step protocol as per manufacturer's recommendations. In brief; anti-cAMP cryptate (donor fluorophore) and cAMP-d2 (acceptor fluorophore) are made up separately by diluting each 1/20 in conjugate & lysis buffer provided in the kit. 5 μL anti-cAMP cryptate is added to wells of the assay plate, and 5 μL cAMP-d2 is added to wells except non-specific binding (NSB) wells, to which conjugate and lysis buffer are added. […] EC50 values of the synthetic peptides determined in cAMP assays are then determined.
(§5) Data is transformed to % Delta F as described in the manufacturer's guidelines and analyzed by 4-parameter logistic fit to determine EC50 values. […] To compare the balance of activities at the GLP-1R and GCGR between different peptides and across different conditions, these can be correlated, where the EC50's are related to those of comparator peptides.

For assay [2], the target named is T2, human glucagon receptor (GCGR) (Homo sapiens, UniProt P47871).
T2 construct: expressed in transfected cells
T2 sequence (P47871 26-477): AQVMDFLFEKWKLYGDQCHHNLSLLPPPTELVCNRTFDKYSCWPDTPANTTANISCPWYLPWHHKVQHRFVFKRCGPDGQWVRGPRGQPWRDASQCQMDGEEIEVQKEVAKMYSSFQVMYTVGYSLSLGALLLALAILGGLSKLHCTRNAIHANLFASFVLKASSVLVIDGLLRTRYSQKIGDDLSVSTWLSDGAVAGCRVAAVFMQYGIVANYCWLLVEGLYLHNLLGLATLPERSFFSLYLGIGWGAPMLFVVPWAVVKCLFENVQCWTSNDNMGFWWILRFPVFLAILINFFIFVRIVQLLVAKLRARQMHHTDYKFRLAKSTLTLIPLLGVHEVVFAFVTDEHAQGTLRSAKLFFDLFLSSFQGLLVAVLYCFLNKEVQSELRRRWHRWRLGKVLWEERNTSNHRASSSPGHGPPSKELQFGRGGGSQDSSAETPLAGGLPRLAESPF
Nature of the assay: cAMP assay, human GCGR cells. It counts as cell-based. The protocol:
as §1, §2, §3, §4, §5
In general terms: cAMP levels reflect the balance of adenylyl cyclase and phosphodiesterase activity.

Where [3] appears, read: cAMP assay, first determination (n1), read-out: Primary assay EC50 GIP-R (n1).
[4] abbreviates: cAMP assay, second determination (n2), read-out: Primary assay EC50 GIP-R (n2).
[5] abbreviates: cAMP assay, first determination (n1), read-out: Primary assay EC50 Gluc-R (n1).
[6] abbreviates: cAMP assay, second determination (n2), read-out: Primary assay EC50 Gluc-R (n2).

Take `CC[C@H](C)[C@H](NC(=O)[C@](C)(Cc1ccccc1)NC(=O)[C@H](CCC(=O)O)NC(=O)[C@H](CCC(=O)O)NC(=O)[C@H](C)NC(=O)[C@H](C)NC(=O)[C@H](CCC(=O)O)NC(=O)CNC(=O)[C@H](CCC(=O)O)NC(=O)[C@H](CC(C)C)NC(=O)[C@](C)(Cc1ccccc1)NC(=O)[C@H](CO)NC(=O)[C@](C)(CO)NC(=O)[C@@H](NC(=O)[C@H](CC(=O)O)NC(=O)[C@H](CO)NC(=O)[C@@H](NC(=O)[C@](C)(Cc1ccccc1)NC(=O)[C@H](CO)NC(=O)CNC(=O)[C@H](CCC(=O)O)NC(=O)C(C)(C)NC(=O)[C@@H](N)Cc1c[nH]cn1)[C@@H](C)O)C(C)C)C(=O)N[C@@H](C)C(=O)N[C@@](C)(Cc1ccccc1)C(=O)N[C@H](C(=O)N[C@H](C(=O)N[C@@H](CCC(=O)O)C(=O)NCC(=O)NCC(N)=O)C(C)C)C(C)C` [compound 44] (H-H[Aib]EGS[αMeF]TSDV[αMeS]S[αMeF]LEGEAAEE[αMeF]IA[αMeF]VVEGG-NH2): the EC50 in assay [1] (setting [3]), in assay [1] (setting [4]), in assay [2] (setting [5]) and in assay [2] (setting [6]) was not below 31 nM throughout.
In the case of `CCCCCCCCCCCC(=O)N[C@@H](CCC(=O)NCCOCCOCC(=O)NCCOCCOCC(=O)NCCCC[C@H](NC(=O)[C@H](CCC(=O)O)NC(=O)CNC(=O)[C@H](CCC(=O)O)NC(=O)[C@H](CC(C)C)NC(=O)[C@H](CCCCNC(=O)COCCOCCNC(=O)COCCOCCNC(=O)CC[C@H](NC(=O)CCCCCCCCCCC)C(=O)O)NC(=O)[C@H](CO)NC(=O)[C@](C)(CO)NC(=O)[C@@H](NC(=O)[C@H](CC(=O)O)NC(=O)[C@H](CO)NC(=O)[C@@H](NC(=O)[C@](C)(Cc1ccccc1)NC(=O)[C@H](CO)NC(=O)CNC(=O)[C@H](CCC(=O)O)NC(=O)C(C)(C)NC(=O)[C@@H](N)Cc1c[nH]cn1)[C@@H](C)O)C(C)C)C(=O)N[C@@H](C)C(=O)N[C@@](C)(CCCCN)C(=O)N[C@@H](CCC(=O)O)C(=O)N[C@@H](Cc1ccccc1)C(=O)N[C@H](C(=O)N[C@@H](C)C(=O)N[C@@H](Cc1ccccc1)C(=O)N[C@@H](CCCCNC(=O)COCCOCCNC(=O)COCCOCCNC(=O)CC[C@H](NC(=O)CCCCCCCCCCC)C(=O)O)C(=O)N[C@H](C(=O)N[C@@H](CCC(=O)O)C(=O)NCC(=O)NCC(N)=O)C(C)C)[C@@H](C)CC)C(=O)O` [compound 481] (H-H[Aib]EGS[αMeF]TSDV[αMeS]SK([AEEA-AEEA-γGlu-Lauroyl])LEGEK([AEEA-AEEA-γGlu-Lauroyl])A[αMeK]EFIAFK([AEEA-AEEA-γGlu-Lauroyl])VEGG-NH2; N-terminus assumed), the EC50 is 19.8 nM in assay [1] (tris-lipidated peptides, first replicate, read-out: Primary assay EC50 GIP-R (n1)) and 19.8 nM in assay [2] (tris-lipidated peptides, second replicate, read-out: Primary assay EC50 Gluc-R (n2)).
Take `CC(C)[C@H](NC(=O)[C@H](CCC(=O)O)NC(=O)[C@H](CO)NC(=O)[C@H](CO)NC(=O)[C@](C)(Cc1ccccc1)NC(=O)[C@H](CO)NC(=O)CNC(=O)[C@H](CCC(=O)O)NC(=O)C(C)(C)NC(=O)[C@@H](N)Cc1c[nH]cn1)C(=O)N[C@@H](CO)C(=O)N[C@@H](CO)C(=O)N[C@@](C)(Cc1ccccc1)C(=O)N[C@H](C(=O)N[C@@H](CCC(=O)O)C(=O)NCC(=O)N[C@@H](CCC(=O)O)C(=O)N[C@@H](C)C(=O)N[C@@H](C)C(=O)N[C@@](C)(CCCCN)C(=O)N[C@@H](CCC(=O)O)C(=O)N[C@@](C)(Cc1ccccc1)C(=O)N[C@H](C(=O)N[C@@H](C)C(=O)N[C@@](C)(Cc1ccccc1)C(=O)N[C@H](C(=O)N[C@H](C(=O)N[C@@](C)(CCCCN)C(=O)NCC(=O)NCC(N)=O)C(C)C)C(C)C)C(C)C)C(C)C` [compound 12] (H-H[Aib]EGS[αMeF]SSEVSS[αMeF]VEGEAA[αMeK]E[αMeF]VA[αMeF]VV[αMeK]GG-NH2): the EC50 in assay [1] (setting [3]) stood at 45 nM; in assay [1] (setting [4]) it was 45 nM; in assay [2] (setting [5]), 10 nM; in assay [2] (setting [6]), 13 nM.

As usually defined, the EC50 is the concentration giving half of the maximal effect.
